Assay results published in PMC10897476, “Pyridylpiperazine efflux pump inhibitor boosts in vivo antibiotic efficacy against K. pneumoniae” (EMBO Molecular Medicine, 2023).
Marks after values point to notes of the source that are not given here.

Legend:
Format in all cases: cell-based, Klebsiella pneumoniae
[1] = system: K. pneumoniae ATCC 43816 (WT); assay: MIC of antibiotics with and without EPI (REMA), WT strain; conditions: for Minimum Inhibitory Concentration / MIC: K. pneumoniae WT; for MIC: Klebsiella pneumoniae, ATCC43816, No EPI, read-out: Minimum Inhibitory Concentration
Description: Overnight cultures were diluted to an OD600 = 0.001 in CAMHB followed by addition of efflux pump inhibitors (EPIs) at a final concentration of 100 µM. […] Plates were incubated at 37 °C for up to 20 h. […] MICs were defined as the concentration that prevented 90% of resazurin turnover compared to the non-treated bacteria.

[2] = system: K. pneumoniae RamR^mut (K124*stop); assay: MIC of antibiotics with and without EPI (REMA), RamR mutant; conditions: for Minimum Inhibitory Concentration: K. pneumoniae RamR^mut; for MIC: Klebsiella pneumoniae, read-out: Minimum Inhibitory Concentration
Description: (§1) MIC experiments were carried out according to the CLSI guidelines (CLSI [2023]). Overnight cultures were diluted to an OD600 = 0.001 in CAMHB followed by addition of efflux pump inhibitors (EPIs) at a final concentration of 100 µM. […] Plates were incubated at 37 °C for up to 20 h. Bacterial viability was evaluated using the resazurin microtitre assay (REMA) and measured by fluorescence using a Tecan Spaert multimode plate reader (Ex: 530 nm Em: 590 nm). MICs were defined as the concentration that prevented 90% of resazurin turnover compared to the non-treated bacteria.
(§2) Mutations in acrB or ramR identified in the BDM88855.HCl (1’) resistant mutant (a.k.a., KPJC11) were introduced individually into K. pneumoniae ATCC 43816 chromosome by allelic exchange (Cianfanelli et al, [2020]). Briefly, 1-kb PCR products centred around each point mutation were generated by amplifying acrB with primers RH1251 ([…][…]) and RH1252 ([…][…]) or ramR with primers RH1249 ([…][…]) and RH1250 ([…][…]) from KPJC11 genomic DNA. PCR fragments were cloned into pFOK (Cianfanelli et al, [2020]) using NEB-building kit ([New England Biolabs]) to generate pEP1533 and pEP1534. Correct plasmids were confirmed by sequencing and introduced into K. pneumoniae ATCC43816 WT via conjugation with the MFDpir+ E. coli donor strain. Exconjugants were selected on kanamycin (50 mg/L) plates at 37 °C and plasmid chromosomal integration was checked by PCR. […] The next day, cultures were diluted and plated onto LB agar. Isolated colonies were then patched onto LB plates with or without kanamycin (50 mg/L) and Km^S candidates were evaluated for correct allelic exchange via acrB or ramR sequencing and then WGS to confirm no additional mutations were introduced.

[3] = system: K. pneumoniae AcrB^V448E RamR^mut; assay: MIC of antibiotics with and without EPI (REMA), double mutant; conditions: for Minimum Inhibitory Concentration: K. pneumoniae AcrB^V448E RamR^mut; for MIC: Klebsiella pneumoniae, read-out: Minimum Inhibitory Concentration
Description: as §1

K. pneumoniae AcrB^V448E = assay: MIC of antibiotics with and without EPI (REMA), AcrB V448E mutant; conditions: for Minimum Inhibitory Concentration: K. pneumoniae AcrB^V448E; for MIC: Klebsiella pneumoniae, read-out: Minimum Inhibitory Concentration
Description: as §1, §2

Row | SMILES | Minimum Inhibitory Concentration ([1]; + 100 µM 1') | Minimum Inhibitory Concentration ([1]; + 100 µM 5) | Minimum Inhibitory Concentration ([1]; + 100 µM PAβN) | MIC [1] [µg/mL] | boosting of antibiotic activity in combination with EPIs ([1]; Table 2) | Minimum Inhibitory Concentration ([2]; + 100 µM 1') | Minimum Inhibitory Concentration ([2]; + 100 µM 5) | Minimum Inhibitory Concentration ([2]; + 100 µM PAβN) | MIC [2] [µg/mL] | Minimum Inhibitory Concentration ([3]; + 100 µM 1') [mg/L] | Minimum Inhibitory Concentration ([3]; + 100 µM 5) [mg/L] | Minimum Inhibitory Concentration ([3]; + 100 µM PAβN) | MIC [3] [µg/mL] | Minimum Inhibitory Concentration (K. pneumoniae AcrB^V448E; + 100 µM 1') | Minimum Inhibitory Concentration (K. pneumoniae AcrB^V448E; + 100 µM 5) | Minimum Inhibitory Concentration (K. pneumoniae AcrB^V448E; + 100 µM PAβN) | MIC (K. pneumoniae AcrB^V448E) [µg/mL] | Minimum Inhibitory Concentration ([3]; No EPI) [mg/L] | Minimum Inhibitory Concentration ([2]; No EPI) [mg/L] | Minimum Inhibitory Concentration (K. pneumoniae AcrB^V448E; No EPI) [mg/L]
1 | CC[C@H]1OC(=O)[C@H](C)[C@@H](O[C@H]2C[C@@](C)(OC)[C@@H](O)[C@H](C)O2)[C@H](C)[C@@H](O[C@@H]2O[C@H](C)C[C@H](N(C)C)[C@H]2O)[C@](C)(O)C[C@@H](C)CN(C)[C@H](C)[C@@H](O)[C@]1(C)O [Azithromycin] | 2.7^# mg/L | 2.0^# mg/L | 0.5^# mg/L | 16 | at least 8 fold | 11^# mg/L | 3.3^# mg/L | 0.7^# mg/L | 37 | 37 | 21 | 0.7^# mg/L | 21 | 6.7^# mg/L | 11^# mg/L | 0.5^# mg/L | 21 |  |  | 
2 | C[C@H]1[C@H](NC(=O)/C(=N\OC(C)(C)C(=O)O)c2csc(N)n2)C(=O)N1S(=O)(=O)O [Aztreonam] | 0.11 mg/L | 0.11 mg/L | 0.16 mg/L | 0.07 |  | 0.32 mg/L | 0.27 mg/L | 0.53 mg/L | 0.43 | 0.53 | 0.75 | 0.53 mg/L | 0.53 | 0.16 mg/L | 0.21 mg/L | 0.32 mg/L | 0.13 |  |  | 
3 | CO/N=C(\C(=O)N[C@@H]1C(=O)N2C(C(=O)[O-])=C(C[N+]3(C)CCCC3)CS[C@H]12)c1csc(N)n1 [Cefepime] | 0.05 mg/L | 0.05 mg/L | 0.21 mg/L | 0.09 |  | 0.64 mg/L | 0.11^# mg/L | 0.64 mg/L | 0.53 | 0.85 | 0.96 | 0.85 mg/L | 0.75 | 0.05 mg/L | 0.04 mg/L | 0.64 mg/L | 0.06 |  |  | 
4 | CC(C)(O/N=C(\C(=O)N[C@@H]1C(=O)N2C(C(=O)[O-])=C(C[n+]3ccccc3)CS[C@H]12)c1csc(N)n1)C(=O)O [Ceftazidime] | 0.32 mg/L | 0.53 mg/L | 0.32 mg/L | 0.43 |  | 1.1 mg/L | 0.64^# mg/L | 0.64^# mg/L | 1.3 | 1.28 | 1.28 | 1.28 mg/L |  | 0.37^# mg/L | 0.32^# mg/L | 0.53 mg/L | 0.85 | 1.28 |  | 
5 | O=C(N[C@H](CO)[C@H](O)c1ccc([N+](=O)[O-])cc1)C(Cl)Cl [Chloramphenicol] | 1.0^# mg/L | 1.0^# mg/L | 1.7^# mg/L | 4 |  | 2.7^# mg/L | 4.7^# mg/L | 2.7^# mg/L | 53 | 128 | 128 | 5.3^# mg/L |  | 2.0^# mg/L | 4.7 mg/L | 2.0^# mg/L | 6.7 | 128 |  | 
6 | CC(=O)O[C@H]1C[C@@]2(C)[C@@H](C[C@@H](O)[C@H]3[C@@]4(C)CC[C@@H](O)[C@@H](C)[C@@H]4CC[C@@]32C)/C1=C(\CCC=C(C)C)C(=O)O [Fusidic acid] | 85 mg/L | 128 mg/L | 21^# mg/L | 128 |  | 128 mg/L | 128 mg/L | 85 mg/L |  | 128 | 128 | 107 mg/L |  | 128 mg/L | 128 mg/L | 32^# mg/L |  | 128 | 128 | 128
7 | CC(=O)NC[C@H]1CN(c2ccc(N3CCOCC3)c(F)c2)C(=O)O1 [Linezolid] | 13^# mg/L | 27^# mg/L | 64^# mg/L | 128 |  | 128 mg/L | 107 mg/L | 128 mg/L |  | 128 | 128 | 128 mg/L |  | 85 mg/L | 128 mg/L | 64^# mg/L |  | 128 | 128 | 128
8 | C[C@@H](O)[C@H]1C(=O)N2C(C(=O)O)=C(S[C@@H]3CN[C@H](C(=O)N(C)C)C3)[C@H](C)[C@H]12 [Meropenem] | 0.50 mg/L | 0.50 mg/L | 0.50 mg/L | 0.5 |  | 0.50 mg/L | 0.50 mg/L | 0.50 mg/L | 0.5 | 0.50 | 0.50 | 1.0 mg/L | 0.67 | 0.67 mg/L | 0.50 mg/L | 0.50 mg/L | 0.5 |  |  | 
9 | CO[C@@H]1[C@@H](OC(N)=O)[C@@H](O)[C@H](Oc2ccc3c(O)c(NC(=O)c4ccc(O)c(CC=C(C)C)c4)c(=O)oc3c2C)OC1(C)C [Novobiocin] | 13^# mg/L | 13^# mg/L | 11^# mg/L | 64 |  | 128 mg/L | 85 mg/L | 43^# mg/L |  | 128 | 128 | 8^# mg/L |  | 64^# mg/L | 32^# mg/L | 16^# mg/L |  | 128 | 128 | 128
10 | Cc1onc(-c2ccccc2)c1C(=O)N[C@@H]1C(=O)N2[C@@H]1SC(C)(C)[C@@H]2C(=O)O [Oxacillin] | 32^# mg/L | 43^# mg/L |  |  |  |  |  |  |  |  |  |  |  |  |  |  |  |  |  | 
